The text below walks through data of patent USRE39197E1, “Cell adhesion-inhibiting antiinflammatory and immune-suppressive compounds” (Abbott Laboratories, priority 1998, dated 2006).

pIC50: −log10 of the molar value.

Experiment [1] has as its target T1, interaction between the integrin LFA-1 and its adhesion partner ICAM-1 (Homo sapiens, UniProt P20701).
T1 construct: Recombinant LFA-1 (100 μL of 0.7 μg/ml mL, ICOS Corporation) in D-PBS; purchased ICOS Corporation
The experiment is described as follows: ICAM-1/LFA-1 Biochemical Interaction Assay. The experiment is classed as binding. Conditions: 4 μM compound; recombinant LFA-1, biotinylated ICAM-1/Ig. The procedure, abridged: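 Plates coated with anti-LFA-1 antibody capture recombinant LFA-1; compound dilutions in D-PBS with 2 mM MgCl2 and 1% fish gelatin, then 0.8 μg/mL biotinylated ICAM-1/Ig added, 1 h RT. Bound ICAM-1 detected by Eu-streptavidin time-resolved fluorescence; % inhibition background-corrected against uncoated wells.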

In experiment [2] the test system is adherence of JY-8 cells (expressing LFA-1) to immobilized ICAM-1. The experiment is described as follows: ICAM-1/JY-8 Cell Adhesion Assay. The note with it: Homo sapiens. The experiment is classed as cell-based, human.
The subject of experiment [3] is adhesion of JY-8 cells (expressing LFA-1) to immobilized ICAM-3. The experiment is described as follows: ICAM-3/JY-8 Cell Adhesion Assay. The note with it: Homo sapiens; 0.6 μM compound; JY-8 cells on immobilized ICAM-3/Ig. The experiment is classed as cell-based, human. Here is the method: As such, it is expected that these compounds should block the interaction of LFA-1 with other CAM's. […] Compounds of the present invention may be evaluated for their ability to block the adhesion of JY-8 cells (a human EBV-transformed B cell line expressing LFA-1 on its surface) to immobilized ICAM-3, as follows:
ICAM-3/JY-8 Cell Adhesion Assay
For measurement of inhibitory activity in the cell-based adhesion assay, 96-well microtiter plates are were coated with 50 μL of recombinant ICAM-3/Ig (ICOS Corporation) at a concentration of 10 μg/mL in D-PBS w/o without Ca^++ or Mg^++ overnight at 4° C. The wells are were then washed twice with D-PBS, blocked by addition of 100 μL of D-PBS, 1% bovine serum albumin (BSA) by incubation for 1 hour at room temperature, and washed once with RPMI-1640/5% heat-inactivated fetal bovine serum (adhesion buffer). Dilutions of compounds to be assayed for ICAM-3/LFA-1 antagonistic activity are were prepared in adhesion buffer from 10 mM stock solutions in DMSO and 100 μL are were added to duplicate wells. JY-8 cells (a human EBV-transformed B cell line expressing LFA-1 on its surface; 100 μL at 0.75×10^6 cells/ml mL in adhesion buffer) are were then added to the wells. Microtiter plates are were incubated for 30 minutes at room temperature; the adherent cells are were then fixed with 50 μL of 14% glutaraldehyde/D-PBS and were incubated for an additional 90 minutes. The wells are were washed gently with dH2O; 50 μL of dH2O is was added, following followed by 50 μL of 1% crystal violet. After 5 minutes the plates are were washed 3× times with dH2O; 75 μL of dH2O and 225 μL of 95% EtOH are were added to each well to extract the crystal violet from the cells. Absorbance is was measured at […] in an ELISA plate reader. The percent inhibition of a candidate compound is was calculated using the following equation. [formula]

The mark [4] stands for this setting: JY-8, JY-8 cells on immobilized ICAM-1/Ig.

T1 sequence (P20701 26-1170): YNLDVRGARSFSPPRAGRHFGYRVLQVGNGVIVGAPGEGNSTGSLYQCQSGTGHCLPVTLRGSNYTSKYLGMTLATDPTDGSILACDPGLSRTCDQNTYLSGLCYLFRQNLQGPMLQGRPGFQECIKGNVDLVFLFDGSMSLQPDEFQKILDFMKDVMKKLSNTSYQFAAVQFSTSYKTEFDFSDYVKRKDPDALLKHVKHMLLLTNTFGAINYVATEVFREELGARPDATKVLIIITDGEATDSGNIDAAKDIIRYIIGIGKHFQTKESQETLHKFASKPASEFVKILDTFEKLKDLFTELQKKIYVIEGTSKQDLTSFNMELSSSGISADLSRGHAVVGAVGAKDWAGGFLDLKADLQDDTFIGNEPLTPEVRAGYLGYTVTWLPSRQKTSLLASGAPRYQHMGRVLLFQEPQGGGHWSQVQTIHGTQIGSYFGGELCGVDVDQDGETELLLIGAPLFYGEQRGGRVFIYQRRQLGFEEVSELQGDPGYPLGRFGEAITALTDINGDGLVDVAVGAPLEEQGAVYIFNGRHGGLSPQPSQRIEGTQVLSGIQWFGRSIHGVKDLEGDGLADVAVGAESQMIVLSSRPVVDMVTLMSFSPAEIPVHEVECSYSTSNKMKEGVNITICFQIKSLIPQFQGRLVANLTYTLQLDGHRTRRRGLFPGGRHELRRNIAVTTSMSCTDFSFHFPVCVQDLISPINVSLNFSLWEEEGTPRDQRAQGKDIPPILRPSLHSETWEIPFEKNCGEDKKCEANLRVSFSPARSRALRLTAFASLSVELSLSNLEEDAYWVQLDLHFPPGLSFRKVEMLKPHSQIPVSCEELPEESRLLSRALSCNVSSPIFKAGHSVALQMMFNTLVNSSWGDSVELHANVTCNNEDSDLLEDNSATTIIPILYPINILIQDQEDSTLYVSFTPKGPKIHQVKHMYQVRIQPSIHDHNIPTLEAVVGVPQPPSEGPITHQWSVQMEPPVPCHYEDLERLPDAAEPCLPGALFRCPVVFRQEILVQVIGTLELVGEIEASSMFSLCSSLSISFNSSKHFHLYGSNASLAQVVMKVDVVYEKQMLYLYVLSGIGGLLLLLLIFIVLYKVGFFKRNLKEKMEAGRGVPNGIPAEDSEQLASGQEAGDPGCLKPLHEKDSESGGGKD
T1 sequence (P05107 23-769 partner): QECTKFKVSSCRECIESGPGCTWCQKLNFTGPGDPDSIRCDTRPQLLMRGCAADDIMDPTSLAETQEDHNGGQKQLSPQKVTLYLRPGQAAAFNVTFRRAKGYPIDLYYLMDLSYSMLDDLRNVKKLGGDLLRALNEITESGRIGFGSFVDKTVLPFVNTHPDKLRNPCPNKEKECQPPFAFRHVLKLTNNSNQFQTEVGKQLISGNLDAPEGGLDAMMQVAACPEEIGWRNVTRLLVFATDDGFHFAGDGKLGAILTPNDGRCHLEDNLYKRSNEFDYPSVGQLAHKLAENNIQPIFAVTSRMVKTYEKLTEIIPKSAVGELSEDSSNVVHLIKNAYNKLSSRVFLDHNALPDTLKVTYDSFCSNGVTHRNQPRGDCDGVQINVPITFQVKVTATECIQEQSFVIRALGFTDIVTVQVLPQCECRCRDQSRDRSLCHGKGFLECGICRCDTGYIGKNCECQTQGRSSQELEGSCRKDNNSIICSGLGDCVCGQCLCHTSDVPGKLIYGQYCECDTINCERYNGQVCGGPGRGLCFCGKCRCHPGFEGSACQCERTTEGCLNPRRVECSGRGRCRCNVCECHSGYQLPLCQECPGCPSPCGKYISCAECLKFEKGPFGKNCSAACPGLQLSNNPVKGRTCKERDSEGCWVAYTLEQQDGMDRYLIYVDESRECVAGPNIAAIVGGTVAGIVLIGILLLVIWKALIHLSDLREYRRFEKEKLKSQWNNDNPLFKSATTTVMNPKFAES

As to `CC(=O)N1CCN(C(=O)/C=C/c2ccc(Sc3cccc(Cl)c3Cl)c([N+](=O)[O-])c2)CC1` [Example 34, (2,3-Dichlorophenyl)[2-nitro-4-(E-((4-acetylpiperazin-1-yl)carbonyl)ethenyl)phenyl]sulfide], the inhibition at 4 µM in experiment [1] came to 91%. Moreover, in experiment [2] (setting [4]), the pIC50 was 7.15. This compound also had an inhibition at 0.6 µM in experiment [3] of 100%.
Turning to `CC(=O)N1CCN(C(=O)/C=C/c2ccc(Sc3ccc(Br)cc3)c([N+](=O)[O-])c2)CC1` [Example 35, (4-Bromophenyl)[2-nitro-4-(E-((4-acetylpiperazin-1-yl)carbonyl)ethenyl)phenyl]sulfide], the inhibition at 4 µM in experiment [1] stood at 89%. In experiment [2] (setting [4]), this compound showed a pIC50 of 6.37. This compound also returned an inhibition at 0.6 µM in experiment [3] of 100%.
`CCN(CC)C(=O)N1CCN(C(=O)/C=C/c2ccc(Sc3ccc(Cl)cc3Cl)c([N+](=O)[O-])c2)CC1` [Example 41, (2,4-Dichlorophenyl)[2-nitro-4-(E-((4-(diethylaminocarbonyl)piperazin-1-yl)carbonyl)ethenyl)phenyl]sulfide]: the inhibition at 4 µM in experiment [1] was determined as 83%. For the same compound, the pIC50 in experiment [2] (setting [4]) was 6.96. Besides, testing at 0.6 µM in experiment [3] gave an inhibition of 100%.
On to `CC(=O)N1CCN(C(=O)/C=C/c2ccc(Sc3ccccc3C)c([N+](=O)[O-])c2)CC1` [Example 45, (2-Methylphenyl)[2-nitro-4-(E-((4-acetylpiperazin-1-yl)carbonyl)ethenyl)phenyl]sulfide], for which, in experiment [1], the inhibition at 4 µM was 88%. The negative logarithm of the IC50 (pIC50) in experiment [2] (setting [4]) is 7.30. Also, at 0.6 µM the inhibition in experiment [3] was 100%.
As for `CC(=O)N1CCN(C(=O)/C=C/c2ccc(Sc3ccccc3Cl)c([N+](=O)[O-])c2)CC1` [Example 46, (2-Chlorophenyl)[2-nitro-4-(E-((4-acetylpiperazin-1-yl)carbonyl)ethenyl)phenyl]sulfide], the inhibition at 4 µM in experiment [1] was determined as 87%. The pIC50 in experiment [2] (setting [4]) is 7.22. This compound came in with an inhibition at 0.6 µM in experiment [3] of 100%.
Take `CCc1ccccc1Sc1ccc(/C=C/C(=O)N2CCN(C(C)=O)CC2)cc1[N+](=O)[O-]` [Example 49, (2-Ethylphenyl)[2-nitro-4-(E-((4-acetylpiperazin-1-yl)carbonyl)ethenyl)phenyl]sulfide]: the inhibition at 4 µM in experiment [1] came to 93%. In experiment [2] (setting [4]), the pIC50 is 7.70. Moreover, in experiment [3], the inhibition at 0.6 µM was 100%.
Take `CC(=O)N1CCN(C(=O)/C=C/c2ccc(Sc3ccccc3C=O)c([N+](=O)[O-])c2)CC1` [Example 60, (2-Formylphenyl)[2-nitro-4-(E-((4-acetylpiperazin-1-yl)carbonyl)ethenyl)phenyl]sulfide]: in experiment [1], the inhibition at 4 µM is 95%. This compound had a pIC50 in experiment [2] (JY-8 cells on immobilized ICAM-1/Ig) of 7.52. The compound further had an inhibition at 0.6 µM in experiment [3] of 100%.

For orientation: inhibition means the relative decrease from the control value, in per cent. In general, pIC50 refers to the negative decadic logarithm of the IC50, by convention in mol/L. Read a low pIC50 as a high IC50.
